Data reported in ChEMBL document CHEMBL5528046, “Discovery of Novel PROTAC Degraders of p300/CBP as Potential Therapeutics for Hepatocellular Carcinoma” (J Med Chem, 2024).
Active and inactive are the calls of the source. The rule behind the calls is not given here.

Legend:
[1] = target: T1, Protein cereblon/Histone acetyltransferase p300 (Homo sapiens, UniProt Q09472+Q96SW2); experiment: PROTAC activity at CRBN/p300 in human SK-HEP1 cells assessed as induction of p300 protein degradation by measuring residual activity at 1 uM incubated for 1 hrs by immunoblotting analysis (reference value: 100%); format: cell-based
Mus musculus = experiment: In vivo PROTAC activity at CRBN/p300 in nude mouse xenografted with human SK-HEP1 cells assessed as reduction in p300 protein level in tumor at 50 mg/kg, ip measured after 24 hrs by immunoblotting analysis; format: functional, organism-based
[2] = target: T2, Protein cereblon/CREB-binding protein (Homo sapiens) (UniProt Q92793+Q96SW2); experiment: PROTAC activity at CRBN/CBP in human SK-HEP1 cells assessed as induction of […] protein degradation by measuring residual activity incubated for 24 hrs by immunoblotting analysis; format: cell-based; conditions: dose 0.5-2 µM
T2 sequence (Q92793 2-2442 limits assumed): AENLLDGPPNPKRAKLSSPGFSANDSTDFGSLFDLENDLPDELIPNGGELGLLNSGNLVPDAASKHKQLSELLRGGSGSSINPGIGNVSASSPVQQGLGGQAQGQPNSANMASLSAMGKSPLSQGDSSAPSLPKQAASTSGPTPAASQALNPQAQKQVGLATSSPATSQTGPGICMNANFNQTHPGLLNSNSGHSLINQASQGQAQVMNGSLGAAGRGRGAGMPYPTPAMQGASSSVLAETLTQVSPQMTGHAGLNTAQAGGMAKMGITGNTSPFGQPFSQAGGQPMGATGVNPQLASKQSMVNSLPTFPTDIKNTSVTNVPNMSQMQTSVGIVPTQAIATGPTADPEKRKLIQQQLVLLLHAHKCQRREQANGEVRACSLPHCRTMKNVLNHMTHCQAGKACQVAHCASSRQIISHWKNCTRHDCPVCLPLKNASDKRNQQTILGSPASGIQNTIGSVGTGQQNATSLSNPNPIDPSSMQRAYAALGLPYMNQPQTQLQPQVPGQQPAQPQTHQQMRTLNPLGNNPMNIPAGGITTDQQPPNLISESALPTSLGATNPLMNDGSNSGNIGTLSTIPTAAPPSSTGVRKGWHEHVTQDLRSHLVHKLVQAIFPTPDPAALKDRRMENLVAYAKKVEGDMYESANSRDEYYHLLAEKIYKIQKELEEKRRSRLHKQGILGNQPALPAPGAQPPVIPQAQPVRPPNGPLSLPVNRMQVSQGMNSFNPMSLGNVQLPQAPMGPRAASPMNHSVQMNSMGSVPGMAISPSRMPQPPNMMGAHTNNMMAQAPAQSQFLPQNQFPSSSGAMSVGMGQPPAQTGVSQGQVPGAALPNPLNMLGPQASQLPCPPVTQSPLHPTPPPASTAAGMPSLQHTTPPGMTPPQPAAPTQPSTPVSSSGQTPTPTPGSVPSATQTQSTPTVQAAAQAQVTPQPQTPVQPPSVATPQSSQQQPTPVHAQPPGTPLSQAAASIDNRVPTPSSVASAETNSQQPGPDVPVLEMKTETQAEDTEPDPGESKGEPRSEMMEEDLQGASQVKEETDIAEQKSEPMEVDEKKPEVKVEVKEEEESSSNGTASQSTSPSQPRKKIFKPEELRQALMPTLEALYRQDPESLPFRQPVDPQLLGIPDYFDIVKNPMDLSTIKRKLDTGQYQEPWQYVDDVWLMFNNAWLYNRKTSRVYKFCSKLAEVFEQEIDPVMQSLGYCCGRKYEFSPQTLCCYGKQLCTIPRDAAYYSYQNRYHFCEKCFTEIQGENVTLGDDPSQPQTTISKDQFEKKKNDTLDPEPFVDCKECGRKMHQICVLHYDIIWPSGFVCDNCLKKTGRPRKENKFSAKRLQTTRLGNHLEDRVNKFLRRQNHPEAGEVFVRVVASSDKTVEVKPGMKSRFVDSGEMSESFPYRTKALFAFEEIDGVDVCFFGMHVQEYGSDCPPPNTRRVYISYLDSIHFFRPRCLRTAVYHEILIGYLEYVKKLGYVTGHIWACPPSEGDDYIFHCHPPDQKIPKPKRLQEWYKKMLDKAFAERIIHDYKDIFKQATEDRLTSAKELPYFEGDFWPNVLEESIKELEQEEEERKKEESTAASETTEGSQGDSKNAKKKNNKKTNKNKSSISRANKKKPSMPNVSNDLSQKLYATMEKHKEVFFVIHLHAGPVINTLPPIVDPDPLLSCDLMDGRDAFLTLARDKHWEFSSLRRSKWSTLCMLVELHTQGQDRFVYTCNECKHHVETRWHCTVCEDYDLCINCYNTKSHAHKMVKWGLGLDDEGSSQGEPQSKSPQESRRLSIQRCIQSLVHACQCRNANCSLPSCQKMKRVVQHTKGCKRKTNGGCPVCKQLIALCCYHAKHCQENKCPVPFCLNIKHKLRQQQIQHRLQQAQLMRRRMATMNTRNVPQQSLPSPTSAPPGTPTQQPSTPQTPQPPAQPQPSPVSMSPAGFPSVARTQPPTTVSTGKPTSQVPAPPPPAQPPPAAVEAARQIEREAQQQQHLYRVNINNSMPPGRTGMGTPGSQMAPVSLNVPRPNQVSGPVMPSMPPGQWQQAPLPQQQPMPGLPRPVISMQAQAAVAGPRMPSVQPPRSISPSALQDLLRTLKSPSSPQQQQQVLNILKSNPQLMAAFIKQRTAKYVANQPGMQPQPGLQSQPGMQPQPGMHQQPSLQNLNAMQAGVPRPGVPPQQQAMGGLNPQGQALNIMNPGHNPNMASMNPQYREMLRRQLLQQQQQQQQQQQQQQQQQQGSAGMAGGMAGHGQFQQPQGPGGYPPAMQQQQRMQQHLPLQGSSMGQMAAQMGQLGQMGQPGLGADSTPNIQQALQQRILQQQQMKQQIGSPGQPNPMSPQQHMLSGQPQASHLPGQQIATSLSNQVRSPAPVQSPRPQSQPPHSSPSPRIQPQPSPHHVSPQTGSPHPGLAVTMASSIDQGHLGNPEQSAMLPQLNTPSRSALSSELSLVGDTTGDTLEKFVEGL
T2 sequence (Q96SW2 whole entry partner): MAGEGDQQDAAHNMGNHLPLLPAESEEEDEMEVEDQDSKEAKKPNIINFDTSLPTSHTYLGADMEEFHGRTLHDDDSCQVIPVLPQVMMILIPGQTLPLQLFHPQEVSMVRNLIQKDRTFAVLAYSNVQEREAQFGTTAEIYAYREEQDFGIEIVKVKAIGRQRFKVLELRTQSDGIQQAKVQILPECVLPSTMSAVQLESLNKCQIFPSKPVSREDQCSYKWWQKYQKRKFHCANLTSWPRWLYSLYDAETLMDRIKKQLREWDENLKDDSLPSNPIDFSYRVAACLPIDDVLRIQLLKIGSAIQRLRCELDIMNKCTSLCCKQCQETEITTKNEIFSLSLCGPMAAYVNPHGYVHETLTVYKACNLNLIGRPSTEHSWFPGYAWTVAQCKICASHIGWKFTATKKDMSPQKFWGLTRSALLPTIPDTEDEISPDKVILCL

SK-HEP1 [3] = experiment: Downregulation of ABI3BP mRNA expression in human SK-HEP1 cells at 1 uM incubated for 24 hrs by RT-qPCR analysis; format: functional, cell-based
SK-HEP1 [4] = experiment: Antiproliferative activity against human SK-HEP1 cells assessed as inhibition of cell growth incubated for 5 days by CCK-8 assay; format: functional, cell-based; conditions: SK-HEP1, 120 h
[5] = target: T2, Protein cereblon/CREB-binding protein (Homo sapiens); experiment: PROTAC activity at CRBN/CBP in human SK-HEP1 cells assessed as induction of […] protein degradation by measuring residual activity at 1 uM incubated for 24 hrs by immunoblotting analysis (reference value: 100%); format: cell-based
SK-HEP1 [6] = experiment: Downregulation of COL3A1 mRNA expression in human SK-HEP1 cells at 1 uM incubated for 24 hrs by RT-qPCR analysis; format: functional, cell-based
[7] = target: T1, Protein cereblon/Histone acetyltransferase p300; experiment: PROTAC activity at CRBN/p300 in human SK-HEP1 cells assessed as increase in protein ubiquitination at 2 uM incubated for 24 hrs by immunoblotting analysis (reference value: 100%); format: cell-based
SK-HEP1 [8] = experiment: Induction of cell cycle arrest at G2/M phase in human SK-HEP1 cells assessed as CDK6 protein level at 0.5 uM incubated for 24 hrs by immunoblotting analysis (reference value: 100%); format: functional
[9] = target: T1, Protein cereblon/Histone acetyltransferase p300; experiment: PROTAC activity at CRBN/p300 in human SK-HEP1 cells assessed as increase in protein ubiquitination at 2 uM pretreated with MG132 at 1 uM followed by compound treatment and further incubated for 24 hrs by immunoblotting analysis (reference value: 100%); format: cell-based
[10] = target: T1, Protein cereblon/Histone acetyltransferase p300; experiment: PROTAC activity at CRBN/p300 in human SK-HEP1 cells assessed as induction of p300 protein degradation by measuring residual activity at 1 uM incubated for 6 hrs by immunoblotting analysis (reference value: 100%); format: cell-based
[11] = Antiproliferative activity against human JHH7 cells assessed as inhibition of cell growth incubated for 5 days by CCK-8 assay; format: functional, cell-based; conditions: JHH7, 120 h
SK-HEP1 [12] = experiment: Downregulation of POSTN mRNA expression in human SK-HEP1 cells at 1 uM incubated for 24 hrs by RT-qPCR analysis; format: functional, cell-based
[13] = target: T2, Protein cereblon/CREB-binding protein (Homo sapiens); experiment: PROTAC activity at CRBN/CBP in human SK-HEP1 cells assessed as induction of […] protein degradation by measuring residual activity at 2 uM incubated for 24 hrs by immunoblotting analysis (reference value: 100%); format: cell-based
[14] = target: T1, Protein cereblon/Histone acetyltransferase p300; experiment: PROTAC activity at CRBN/p300 in human SK-HEP1 cells assessed as induction of p300 degradation by measuring residual activity at 0.5 uM pretreated with thalidomide at 0.5 uM followed by compound addition by immunoblotting analysis relative to control; format: cell-based
[15] = target: T1, Protein cereblon/Histone acetyltransferase p300; experiment: PROTAC activity at CRBN/p300 in human SK-HEP1 cells assessed as induction of p300 protein degradation at 1 uM incubated for 24 hrs relative to control; format: cell-based
[16] = target: T1, Protein cereblon/Histone acetyltransferase p300; experiment: PROTAC activity at CRBN/p300 in human SK-HEP1 cells assessed as induction of p300 protein degradation by measuring residual activity at 1 uM incubated for 12 hrs by immunoblotting analysis (reference value: 100%); format: cell-based
[17] = target: T1, Protein cereblon/Histone acetyltransferase p300; experiment: PROTAC activity at CRBN/p300 in human SK-HEP1 cells assessed as induction of p300 degradation by measuring residual activity at 0.5 uM pretreated with MLN4924 at 0.5 uM followed by compound addition by immunoblotting analysis relative to control; format: cell-based
SK-HEP1 [18] = experiment: Induction of cell cycle arrest at G2/M phase in human SK-HEP1 cells incubated for 48 hrs by RNase/PI staining based flow cytometry analysis; format: functional; conditions: dose 0.5-2 µM
[19] = target: T1, Protein cereblon/Histone acetyltransferase p300; experiment: PROTAC activity at CRBN/p300 in human SK-HEP1 cells assessed as induction of p300 degradation by measuring increase in p21 level at 0.5 uM pretreated with MG-132 at 1 uM followed by compound addition by immunoblotting analysis relative to control; format: cell-based
[20] = target: T1, Protein cereblon/Histone acetyltransferase p300; experiment: PROTAC activity at CRBN/p300 in human SK-HEP1 cells assessed as induction of p300 protein degradation at 0.01 uM incubated for 24 hrs relative to control; format: cell-based
[21] = target: T1, Protein cereblon/Histone acetyltransferase p300; experiment: PROTAC activity at CRBN/p300 in human SK-HEP1 cells with siRNA mediated CRBN knockdown assessed as induction of p300 degradation by measuring residual activity at 1 uM by immunoblotting analysis relative to control; format: cell-based
[22] = target: T2, Protein cereblon/CREB-binding protein (Homo sapiens); experiment: PROTAC activity at CRBN/CBP in human SK-HEP1 cells assessed as induction of […] protein degradation by measuring residual activity at 0.5 uM incubated for 24 hrs by immunoblotting analysis (reference value: 100%); format: cell-based
SK-HEP1 [23] = experiment: Downregulation of IGFBP3 mRNA expression in human SK-HEP1 cells at 1 uM incubated for 24 hrs by RT-qPCR analysis; format: functional, cell-based
SK-HEP1 [24] = experiment: Inhibition of colony formation in human SK-HEP1 cells incubated for 14 days with compound containing media replacement for every 3 days by crystal violet staining based assay; format: functional, cell-based; conditions: dose 0.5-2 µM, time 14.0 day
[25] = target: T2, Protein cereblon/CREB-binding protein (Homo sapiens); experiment: In vivo PROTAC activity at CRBN/CBP in nude mouse xenografted with human SK-HEP1 cells assessed as reduction in CBP protein level in tumor at 50 mg/kg, ip measured after 24 hrs by immunoblotting analysis; format: functional, organism-based
[26] = target: T1, Protein cereblon/Histone acetyltransferase p300; experiment: PROTAC activity at CRBN/p300 in human SK-HEP1 cells assessed as induction of p300 degradation by measuring residual activity at 0.5 uM pretreated with MG-132 followed by compound addition by immunoblotting analysis relative to control; format: cell-based
[27] = target: T1, Protein cereblon/Histone acetyltransferase p300; experiment: PROTAC activity at CRBN/p300 in human SK-HEP1 cells assessed as induction of p300 protein degradation at 0.1 uM incubated for 24 hrs relative to control; format: cell-based
SK-HEP1 [28] = experiment: Induction of cell cycle arrest at G2/M phase in human SK-HEP1 cells assessed as reduction in CDK6 protein level at 2 uM incubated for 24 hrs by immunoblotting analysis (reference value: 100%); format: functional; design: scale not given: the % may be the effect or the level left
[29] = target: T1, Protein cereblon/Histone acetyltransferase p300; experiment: PROTAC activity at CRBN/p300 in human SK-HEP1 cells assessed as induction of p300 protein degradation by measuring residual activity at 100 nM incubated for 24 hrs by immunoblotting analysis (reference value: 100%); format: cell-based

Cc1noc(C)c1-c1ccc2c(c1)nc([C@@H]1CCCC(=O)N1c1ccc(F)c(F)c1)n2C1CCN(C2CN(c3ccc4c(c3)C(=O)N(C3CCC(=O)NC3=O)C4=O)C2)CC1 (stereo not given in full)
Activity [1]: 78%
Activity (Mus musculus): Active
Activity [2]: Dose-Dependent Effect
Activity (SK-HEP1 [3]): Active
IC50 (SK-HEP1 [4]): 0.733 µM
Activity [5]: 92%
Activity (SK-HEP1 [6]): Active
Activity [7]: 125%
Activity (SK-HEP1 [8]): 104%
Activity [9]: 114%
Activity [10]: 59%
IC50 [11]: 0.447 µM
Activity (SK-HEP1 [12]): Active
Activity [13]: 89%
Activity [14]: 99%
Activity [15]: 47%
Activity [16]: 58%
Activity [17]: 101%
Activity (SK-HEP1 [18]): Dose-Dependent Effect
Activity [19]: 537%
Activity [20]: 9%
Activity [21]: 78%
Activity [22]: 98%
Activity (SK-HEP1 [23]): Active
inhibition (SK-HEP1 [24]): Dose-Dependent Effect
Activity [25]: Active
Activity [26]: 93%
Activity [27]: 27%
Activity (SK-HEP1 [28]): 87%
Activity [29]: 61%
